For one assay, the system named is human Notch2. Put plainly: Pulse chase labeling of Notch2 processing in SJ-NB5 cells. It counts as cell-based. The note with it: for breakdown (cleavage, processing) of full-length Notch: [35S] pulse 20 min and chase at 37° C., immunoprecipitated by PGHN, Brefeldin A 10 μg/ml; for appearance of N^EC: pulse labeling. How it is done:
SJ-NB5 cells were grown on 60 mm petri dishes until ˜80% confluent, washed once with PBS, and then incubated in methionine and cysteine free DMEM medium for 1 hr. 100 μCi^35S-translabled Met-Cys (ICN) was added to each plate, pulsed at 37° C. for 20 minutes, and chased for varying times and temperatures. The chase began by adding 2× volume complete medium plus 100 μg/ml cold methionine and cysteine to the plates. For Brefeldin A samples, Brefeldin A was maintained at a final concentration of 10 μg/ml in starvation medium as well as in both pulse and chase. Cells were washed with cold PBS and lysed in lysis buffer (Zagouras et al., 1995, Proc. Natl. Acad. Sci. USA 92:6414-6418) containing 1 mM Pefabloc SC, 0.7 μg/mlpepstatin A, and 0.5 μg/ml leupeptin. Cell lysates were centrifuged at 14,000 rpm for 5 minutes. The supernatants were transferred to fresh tubes and pre-cleared by incubating with 5 μl normal rabbit serum and 50 μl 10% protein A-sephrose CL-4B (Pharmacia LKB) for 1 hr at 4° C. The beads were pelleted by centrifugation and the supernatants were divided into two equal aliquots. One aliquot was immunoprecipitated by incubating with rabbit polyclonal anti-human Notch2 antibody PGHN and 50 μl protein A-sephrose CL-4B for 2-3 hrs or overnight at 4° C. The other aliquot was immunoprecipitated by normal rabbit serum as control. The beads were washed three times in RIPA buffer B (150 mM NaCl, 1% NP40, 0.5% DOC, 0.1% SDS, 50 mM Tris, pH 7.5); washed once in 50 mM Tris-Cl, 150 mM NaCl, pH 7.5; resuspended in 50 μl SDS-sample buffer; boiled; and subjected to a 3-15% gradient SDS-PAGE. The gel was fixed in 25% iso-propanol, 10% acetic acid for 30 minutes, soaked in Amplify™ (Amersham) for 15-30 minutes, dried, and exposed to X-ray film at −70° C.
In an attempt to determine the cellular compartment where Notch is cleaved, pulse labeling analyses were carried out in the presence of drugs that are known to interfere with cellular trafficking.

The test system of assay [1] is Drosophila Notch N^EC/N^TM heterodimer. Nature of the assay: Tethering of N^EC to N^TM in Notch expressing S2 cells (supernatant Western blot, sucrose density centrifugation). The format is cell-based. The note with it: for dissociation of N^EC and N^TM: calcium ion chelators. How it is done:
Briefly, Drosophila S2 cells were induced to express Notch with the addition of 0.7 mM CuSO4 for 16 hours; Notch expression was under the control of the metallothionien promoter (Fehon et al., 1990, Cell 61:523-534). The cells were washed once with 20 mM Tris-HCl, 150 mM NaCl, 2 mM CaCl2 (TBS/Ca^2+) and were resuspended in TBS/Ca^2+ or in 20 mM Tris-HCl, 150 mM NaCl. 2 mM EDTA (TBS/EDTA) and incubated for one hour at room temperature under slow rocking. The cells were centrifuged and pelleted and the supernatants were collected for SDS-PAGE and Western blot analysis. The blot was probed with a monoclonal antibody directed to the extracellular domain of Notch, specifically against EGF-like repeats 5-7 of Drosophila Notch (clone C461.3B). This monoclonal was detected using goat anti-mouse horseradish peroxidase secondary antibody and chemiluminescent substrate.
The extracts were sedimented through a 5-20% sucrose gradient in the above-respective buffers (without the protease inhibitors) in a Beckman SW50.1 rotor at 34,000 rpm for 16 hours at 4° C. Fractions were collected and precipitated with 10% trichloroacetic acid. The protein pellets were resuspended in SDS-PAGE sample buffer and analyzed by SDS-PAGE and Western blotting. Blots were probed with a mixture of monoclonal antibodies C461.3B and 9C6 (directed against the intracellular domain of Notch) and detected as described above.

For the next assay, the system named is Notch/Delta. Put plainly: Co-immunoprecipitation of N^TM with Delta antibodies after Notch/Delta cell aggregation. The conditions noted are these: aggregation disrupted by depleting calcium from the medium; data not shown. It counts as cell-based, Drosophila. How it is done: Human neuroblastoma (SJ-NB5) cells were grown at 37° C. in an atmosphere of 5% CO2/95% air, in RPMI (Gibco-BRL, Grand Island, N.Y.) supplemented with 10% fetal bovine serum (Gibco BRL, Grand Island, N.Y.), 2 mM L-Glutamine (ICN Biomedicals, Inc., Costa Mesa, Calif.), 100 μg/ml penicillin, and 100 μg/ml streptomycin (ICN Biomedicals, Inc., Costa Mesa, Calif.). Cells were dissociated using phosphate buffered saline (PBS) with 0.25% trypsin and 0.03% EDTA (J. T. Baker, Inc., Phillipsburg, N.J.), and subcultured at ratios of 1:3 to 1:10. HaCat Cells (cultured human keratinocytes) were a gift from Dr. Michael Reiss (Yale University). Aggregation experiments and the maintenance of Drosophila S2 and KC cells were as described in Fehon et al., 1990, Cell 61:523-534.
The biological significance of the heterodimeric Notch form would be questionable if it could not bind ligands. […] If the heterodimeric form interacts with Delta after aggregation then the 110 kd N^TM fragment should co-immunoprecipitate using Delta antibodies.

SMILES strings stand for the structures. Entries after “also recorded” stand apart in the source; their conditions may differ.

As for `CC[C@@]1([C@@H]2O[C@@H]([C@H]3O[C@@](O)(CO)[C@H](C)C[C@@H]3C)C[C@@H]2C)CC[C@H]([C@]2(C)CC[C@]3(C[C@H](O)[C@@H](C)[C@@H]([C@@H](C)[C@@H](OC)[C@H](C)C(=O)O)O3)O2)O1` [monensin], in the assay with human Notch2, the “breakdown (cleavage, processing) of full-length Notch” value (“breakdown (cleavage, processing)” for short) is given as “do not affect processing” and the “appearance of N^EC” value is “not inhibited”.

For the molecule `C[C@H]1CCC/C=C/[C@@H]2C[C@H](O)C[C@H]2[C@H](O)/C=C/C(=O)O1` [Brefeldin A], in the assay with human Notch2, the “breakdown (cleavage, processing)” value is “effectively blocks the breakdown of full-length Notch; also recorded: blocked; also recorded: inhibit the cleavage of Notch” and the “appearance of N^EC” value is recorded as “is inhibited”.

`OCCS` [β-mercaptoethanol]: in assay [1], the “sensitivity of the N^EC/N^TM interaction to reducing agents” value is given as “sensitive”.

On to `O[C@H](CS)[C@H](O)CS` (racemic) [dithiothreitol (DTT), dithiothreitol], for which the “sensitivity of the N^EC/N^TM interaction to reducing agents” value in assay [1] is given as “sensitive”.

Take `CCN(CC)CCCC(C)Nc1ccnc2cc(Cl)ccc12` (stereo not shown) [chloraquinone]: in the assay with human Notch2, the “breakdown (cleavage, processing)” value is “do not affect processing” and the “appearance of N^EC” value is listed as “not inhibited”.

Turning to `O=C(O)CN(CCN(CC(=O)O)CC(=O)O)CC(=O)O` [EDTA], in assay [1] (2 mM EDTA, Tris-HCl saline buffer, one hour at room temperature, Western blot), the “N^EC in the supernatant of Notch expressing S2 cells” value was “N^EC is present in the supernatant”. The “sedimentation of N^EC and N^TM in sucrose density centrifugation” value in assay [1] (S2 cell extracts, TBS/EDTA with 1% Triton X-100, 5-20% sucrose gradient) is listed as “sediment separately”. The “dissociation of N^EC and N^TM” value in assay [1] is “dissociate”.

For `O=C(O)CN(CCOCCOCCN(CC(=O)O)CC(=O)O)CC(=O)O` [EGTA], the “dissociation of N^EC and N^TM” value in assay [1] was “dissociate”. The “precipitation of N^TM by Delta antibodies” value in the assay on Notch/Delta is recorded as “fail to efficiently precipitate N^TM”.
